≈ marks a conversion by molar mass, not a printed value. Like-named read-outs stand apart in the source and are kept apart here.
Columns and labels:
[1] = target: dihydrofolate reductase from E. coli (Escherichia coli, UniProt P0ABQ4); test: inhibition of dihydrofolate reductase from E. coli; format: biochemical
P. falciparum = test: in vitro activity against malaria pathogen P. falciparum; format: cell-based; conditions: Plasmodium falciparum
Experimental: (§1) In the case of in vitro experiments an minimum inhibitory concentration of 0.1-1.6 μg/ml has been determined for compound A against Bacteroides fragilis strains. […] In comparison to this, values of 79 and 45 μg/l, respectively, were determined for the known pyrimethamine.

[2] = test system: Bacteroides fragilis strains; test: in vitro minimum inhibitory concentration against Bacteroides fragilis strains; format: cell-based
Experimental: as §1

[3] = P. falciparum strain 13, read-out: ID50 (the source's name)
[4] = P. falciparum strain T9, read-out: ID50 (the source's name)

| Structure (SMILES) | IC50 [1] [nM] | IC50 (P. falciparum; [3]) [µg/mL] | IC50 (P. falciparum; [4]) [µg/mL] | MIC [2] [µg/mL] |
| --- | --- | --- | --- | --- |
| COc1cc(OC)cc(N2[C@@H]3CC[C@H]2C[C@H](c2cnc(N)nc2N)C3)c1 [compound A, exo-2,4-diamino-5-[8-(3,5-dimethoxyphenyl)-8-azabicyclo[3.2.1]oct-3-yl]pyrimidine] | 3.3 | 0.0009 (≈ 0.00253 µM) | 0.0014 (≈ 0.00394 µM) | 0.1 to 1.6 (≈ 0.281 to 4.5 µM) |
| CCc1nc(N)nc(N)c1-c1ccc(Cl)cc1 [pyrimethamine, reference compound] |  | 0.045 (≈ 0.181 µM) | 0.079 (≈ 0.318 µM) |  |

Source: patent US4590270A, “2,4-diamino-[4-piperidinyl]pyrimidines useful as antibacterial agents, antimalarial agents, antitumors agents” (Hoffmann-La Roche Inc., priority 1983, dated 1986)
